Test results as given in US20260021138A1, “EXTRACELLULAR VESICLES AND PARTICLES FROM IMMUNE CELLS FOR PROVIDING ANTICANCER ACTIVITY” (LIETUVOS SVEIKATOS MOKSLU UNIVERSITETAS, priority 2022, published 2026).

Key:
[1] = tested on: U-937-derived macrophage cell cultures; assay: Total cell number after poly(I:C) treatment, macrophages; assay type: cell-based, human; conditions: 24 hours after the poly(I:C) treatment; data not shown
Procedure: CELL CULTURES FOR EV PRODUCTION. Human monocytes U-937 (ATCC, CRL1593.2) were maintained in RPMI-1640 medium with GlutaMAX (Thermo Fisher Scientific) supplemented with 10% exosome-free FBS (Thermo Fisher Scientific) and 1000 IU/mL penicillin-streptomycin (Gibco, Thermo Fisher Scientific). U-937 were grown in T150 (30 mL medium) tissue culture flasks at 37° C. (incubator New Brunswick Galaxy 170S, Eppendorf) until the settled cells covered 65-75% of the vial bottom. For induction of cell differentiation, the cell medium was changed to Macrophage-SFM medium (Thermo Fisher Scientific) with 200 nM phorbol myristate acetate (PMA, Merck) and the cells were left for 24 hours in a Soft Flask. After this, the medium was replaced with Macrophage-SFM without PMA and kept in the incubator for 48 hours.
For TLR-3 pathway stimulation, U-937-derived macrophages and HMC-3 cells were treated with 10 μg/mL poly(I:C) for 1 hour (FIG. 1A, C). For induction of large EV shedding, the stimulation time was increased to 8 hours (FIG. 1B, D). After the treatments, the large EVs were collected by a series of centrifugation. First, the media were centrifuged for 10 min at 800×g to remove cells and large cell debri. Then, the supernatant was centrifuged at 14000×g for 30 minutes to spin down large EVs. The EV pellets were resuspended in PBS by pipetting up and down several times. […]

[2] = tested on: human microglial cultures (HMC-3); assay: Total cell number after poly(I:C) treatment, microglia; assay type: cell-based; conditions: 24 hours after the poly(I:C) treatment; data not shown
HROG-36 GBM 3D spheroids = assay: GBM cell migration area in 3D cell cultures; assay type: cell-based, human; conditions: at higher concentrations
Procedure: For EV internalisation assessment in 2D GBM cell cultures, AF555-labelled EV solutions in PBS were applied to mixed glial and microglial cultures making a final concentration of 50 μg/mL of total EV protein. The cells were visualised by a fluorescent microscope Zeiss Axio Observer.Z1 (Carl Zeiss, Jena, Germany). For 3D GBM cell cultures, U-bottom 96-well plates were coated with a thin layer of 2% agarose prior to cell seeding. The cells were seeded at a density of 10000 per well, and the plate was centrifuged at 280×g for 7 min. […] The spheroid diameter was monitored under a light microscope on each day of culture (FIG. 17). […]
For EV efficiency on GBM cell migration in 3D GBM cell cultures, microscopic images of the cultures were taken at the start and at the end (72 hours), and the area covered by cells was calculated. […] Using the ImageJ software package, the area occupied by migrating spheroid cells was assessed, and the area of the spheroid at the initial time point was subtracted, as indicated in FIG. 24C. Representative images before and after treatment with U-937-derived macrophage and HMC-3 microglial EVs with and without DOX or TMZ and the same amount of free DOX are presented in FIG. 20-23, and quantitative assessment results—in FIG. 24.

Compound	Total cell numbers decreased by [1] [%]	cell numbers significantly increased by [2] [%]	GBM migration suppression, free drug versus loaded EVs (HROG-36 GBM 3D spheroids)
poly(I:C)	15±2	22±7	–
COc1cccc2c1C(=O)c1c(O)c3c(c(O)c1C2=O)C[C@@](O)(C(=O)CO)C[C@@H]3O[C@H]1C[C@H](N)[C@H](O)[C@H](C)O1 [DOX, doxorubicin]	–	–	more efficient
